Non-standard residues stand in square brackets, D forms with d. Residues, ends and D or L forms follow the SMILES beside them. *: point of attachment. X1 = O=C(O)CC[C@H](NC(=O)N[C@@H](CCCCNC(=O)CCCCCCC(=O)*)C(=O)O)C(=O)O; d2Nal = N[C@H](Cc1ccc2ccccc2c1)C(=O)O; Mercaptoacetyl = O=C(CS)*
Target: T1, human PSMA (CHO-K1-PSMA cells) (Homo sapiens, UniProt Q04609)
T1 construct: host or cells: CHO-K1 (lentiviral transduction, clone 5)
Assay: Saturation binding assay on CHO-K1-PSMA cells
Conditions: 2 h at 4 °C
Description: Saturation binding experiments were carried out with increasing concentrations of the radiolabeled peptides for 2 h at 4 °C. […] Cells were processed as previously published. […] The next day, the culture medium was replaced with 0.8 mL Ham's F 12 Nutrient Mix (1% FBS), and the cells were kept in the fridge for 30 min before the addition of the radioligand. […] The saturation assay was performed at 4 °C to avoid internalization. […] Total incubation volume per well: 1 mL. […] The obtained fractions and standard aliquots were measured in a γ-counter. […] Human GRPR reverse: [NT] Human β-ACTIN forward: [NT] Human β-ACTIN reverse: [NT] 3.3.4 Western blot Total protein was isolated from cell lines as previously described. PierceTM Coomassie Plus (Bradford) Protein Assay Kit (Thermo Scientific, Cat.Nr. 23236) was used for measuring protein concentrations and 30 μg (for PSMA) or 40 μg (for GRPR) protein per sample was used for SDS-PAGE and Western blot as previously described. PSMA (CST, D4S1F) Rabbit, GRPR (Alomone labs, Cat.Nr. ABR-002) Rabbit, α-Tubulin (Proteintech, Cat.Nr. 66031-1-Ig) Mouse and β-Actin (Proteintech, Cat.Nr. 66009-1-Ig) Mouse antibodies were utilized for detection of protein expression. Secondary antibodies used, included goat anti -rabbit IgG HRP conjugate (JD111036047) and rabbit anti -mouse IgG HRP conjugate (JD315035008). […] (Figure 6B, Table 1, main manuscript). […] 21

T1 sequence (Q04609 whole entry): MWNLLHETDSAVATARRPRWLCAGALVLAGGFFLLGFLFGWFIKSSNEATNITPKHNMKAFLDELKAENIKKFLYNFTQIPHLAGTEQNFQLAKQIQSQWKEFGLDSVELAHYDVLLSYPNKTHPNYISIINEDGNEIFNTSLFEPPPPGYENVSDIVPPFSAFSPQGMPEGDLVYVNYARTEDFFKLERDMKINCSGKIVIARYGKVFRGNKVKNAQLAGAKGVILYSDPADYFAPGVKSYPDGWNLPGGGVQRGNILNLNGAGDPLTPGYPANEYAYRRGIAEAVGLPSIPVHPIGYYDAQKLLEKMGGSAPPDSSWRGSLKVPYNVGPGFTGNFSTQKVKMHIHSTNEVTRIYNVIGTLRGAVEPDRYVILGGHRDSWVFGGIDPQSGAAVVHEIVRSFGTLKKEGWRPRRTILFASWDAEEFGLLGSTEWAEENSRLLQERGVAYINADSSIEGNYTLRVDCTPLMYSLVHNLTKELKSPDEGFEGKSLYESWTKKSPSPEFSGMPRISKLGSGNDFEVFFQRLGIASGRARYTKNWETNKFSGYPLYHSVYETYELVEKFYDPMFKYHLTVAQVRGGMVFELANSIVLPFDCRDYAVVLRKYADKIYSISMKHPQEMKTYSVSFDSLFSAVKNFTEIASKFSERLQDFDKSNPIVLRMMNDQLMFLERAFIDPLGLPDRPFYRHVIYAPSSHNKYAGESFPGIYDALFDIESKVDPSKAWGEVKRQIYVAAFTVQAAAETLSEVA

Kd: 3.84 ± 0.44 nM
SMILES: O=C(O)CC[C@H](NC(=O)N[C@@H](CCCCNC(=O)CCCCCCC(=O)NCCCC[C@@H](NC(=O)[C@@H](Cc1ccc2ccccc2c1)NC(=O)[C@@H](Cc1ccc(O)cc1)NC(=O)[C@@H](CO)NC(=O)[C@@H](CO)NC(=O)[C@@H](CO)NC(=O)CS)C(=O)O)C(=O)O)C(=O)O [[^99mTc]Tc-PSMA-I&S, metal not drawn] (Mercaptoacetyl-[dS][dS][dS][dY][d2Nal][dK](X1)-OH)
